Test results published in patent publication US20260200903A1, “PHARMACEUTICAL COMPOSITION FOR AMELIORATING MALIGNANT DISEASES” (KINKI UNIVERSITY, priority 2020, published 2026).

Key:
Format in all cases: cell-based
[1] = test system: Raji cells (burkitt lymphoma cell line); test: Cell death inducing effect on Raji cells, trypan blue staining; conditions: Raji (Burkkit lymphoma), cell viability
Description: (§1) Raji cells (burkitt lymphoma cell line) were cultured under 5% CO2 at 37° C. The culture medium used RPMI-1640 medium with 100 μg/mL penicillin, 100 U/mL streptomycin and fetal bovine serum. Raji cells were seeded into 96-well plates and incubated with each concentration of the compounds was added, and cell viability was determined by the trypan blue staining.
(§2) For controls, only 0.5% DMSO (diluted in PBS) used to dissolve the compounds was added. For each concentration, each bar line is indicated by an arrow with the sign “n, a, 1, 2, 3, 4, 5, 6, 7, 8, 9, 10, 11, 12” from left to right. The “1, 3, 5, 7, 9, 11” are omitted from the graph, but the sign “1” shall be indicated by an arrow between the signs “a” and “2”, the sign “3” between the signs “2” and “4”, and other odd numbers shall likewise be indicated by arrows between even numbers before and after.
(§3) The sign “n” is the norathyriol (formula (n)) administration group, the sign “a” is the mangiferin 8a (formula (a)) administration group, the sign “1” is the yk-7 (formula (1)) administration group, the sign “2” is the yk-8-1 (formula (2)) administration group, the sign “3” is the yk-8-3 (formula (3)) administration group, the sign “4” is the M7 (formula (4)) administration group, the sign “5” is the M9 (formula (5)) administration group, the sign “6” is the M11 (formula (6)) administration group, the sign “7” is the M12 (formula (7)) administration group, the sign “8” is the M14 (formula (8)) administration group, the sign “9” is the M15 (formula (9)) administration group, the sign “10” is the M16 (formula (10)) administration group, the sign “11” is the M18 (formula (11)) administration group, the sign “12” is the M19 (formula (12)) administration group, respectively. The IC50 values for each compound is also listed in the upper right corner of the figure.

phospho-IKK = test: Immunoblotting of phospho-IKK in KMS-28BM cells; conditions: 72 h, vs control, same concentrations as for phospho-NIK (0.005-100 μM)
Description: (§4) Immunoblotting was performed on KMS-28BM cells to investigate the inhibitory effect of each compound administration on NIK inhibition and the activation of IKK, NF-κB p52, and NF-κB p65, which are downstream signals of NIK. As a result, inhibition of NIK activation, inhibition of IKK activity, and inhibition of nuclear translocation of NF-κB p52 and NF-κB p65 were observed (FIG. 15 and FIG. 16).
(§5) As a control, compounds untreated KMS-28BM cells were seeded in 150 cm^2 flasks and incubated for 72 h at 37° C. and 5% CO2. KMS-28BM cells were seeded into 150 cm^2 flasks and pre-cultured for 24 h. After incubation, KMS-28BM cells were treated with […], 1 μM norathyriol, 0.5 μM M7 (formula (4)), 1 μM M8 (mangiferin 8a: listed in duplicate), 0.2 μM M9 (formula (5)), 5 μM yk-7 (formula (1)), 0.5 μM yk-8-3 (formula (3)) and 100 μM yk-8-1 (formula (2)) at final concentrations, and incubated for 72 h at 37° C. and 5% CO2. In addition, KMS-28BM cells were also treated with 0.5 μM M19 (formula (12)), 0.5 μM M18 (formula (11)), 0.005 μM M16 (formula (10)), […] (formula (9)), 0.005 μM M14 (formula (8)), 0.05 μM M12 (formula (7)) and […] (formula (6)) at the final concentrations, and incubated for 72 h at 37° C. and 5% CO2. Proteins were extracted from these cell suspensions with cell lysate and used as samples.
(§6) The nucleus and cytoplasmic substrate were separated from the cells using the ProteoExtract (registered trademark) Subcellular Proteome Extraction Kit from Merck Ltd. to extract the cytoplasmic and nuclear fractions.
(§7) After SDS-PAGE, each sample was transferred to a PVDF membrane and examined using anti-phospho-NIK, anti-NIK, anti-phospho-IKK, anti-IKK, anti-P-actin, anti-NF-κB p52 and anti-NF-κB p65 antibody, and anti-Lamin antibody.
(§8) The antibody species is indicated in the vertical direction. Specifically, for anti-phospho-NIK antibody, “Phospho-NIK” was used, for anti-NIK antibody, “NIK” was used, for anti-phospho-IKK antibody, “Phospho-IKK” was used, for anti-IKK antibody, “IKK” was used, for anti-p-actin antibody, “p-actin” was used, for anti-NF-κB p52 antibody, “NF-κB p52 nuclear” was used, for anti-NF-κB p65 antibody, “NF-κB p65 nuclear” was used, and for anti-Lamin antibody, “Lamin” was used.

[2] = test system: SU-DHL-4 cells (diffuse large B-cell lymphoma); test: Cell death inducing effect on SU-DHL-4 cells, trypan blue staining; conditions: SU-DHL-4 (DLBCL), cell viability
Description: SU-DHL-4 cells (diffuse large B-cell lymphoma) were cultured under 5% CO2 at 37° C.
The culture medium used RPMI-1640 medium with 100 μg/mL penicillin, 100 U/mL streptomycin and fetal bovine serum. SU-DHL-4 cells were seeded into 96-well plates and incubated with each concentration of the compounds was added, and cell viability was determined by the trypan blue staining.
as §2, §3

[3] = test system: RR1 cells (rituximab-resistant burkitt lymphoma cell line); test: Cell death inducing effect on RR1 cells, trypan blue staining; conditions: RR1 (Burkkit lymphoma; rituximab resistance), cell viability
Description: Raji cells, a burkitt lymphoma cell line, were modified to be rituximab-resistant and named RR1 cells.
RR1 cells (rituximab-resistant burkitt lymphoma cell line) were cultured under 5% CO2 at 37° C. The culture medium used RPMI-1640 medium with 100 μg/mL penicillin, 100 U/mL streptomycin and fetal bovine serum. RR-1 cells were seeded into 96-well plates and incubated with each concentration of the compounds was added, and cell viability was determined by the trypan blue staining.
as §2, §3

[4] = test system: L363 cells (myeloma cell line); test: Cell death inducing effect on L363 cells, trypan blue staining
Description: as §1, with “L363” for “Raji”, “(myeloma” for “(burkitt lymphoma”
as §2, §3

NF-κB p52 nuclear = test: Immunoblotting of NF-κB p52 nuclear in KMS-28BM cells; conditions: nuclear fraction, 72 h, same concentrations (0.005-100 μM)
Description: as §4, §5, §6, §7, §8

[5] = Homo sapiens, L-363, cell viability

1,2′,3′,4′,6-penta-O-propionylmangiferin [Compound 8a, reference compound]
IC50 [1]: 4.15 µM | phospho-IKK band density (anti-phospho-IKK antibody) (phospho-IKK): decrease in band density | IC50 [2]: 8.06 µM | IC50 [3]: 0.328 µM | IC50 ([4]; cell viability): 5.6 µM | NF-κB p52 nuclear (NF-κB p52 nuclear): decreased

CCC(=O)OC[C@H]1O[C@@H](c2c(O)cc3oc4cc(O)c(O)cc4c(=O)c3c2O)[C@H](OC(=O)CC)[C@@H](OC(=O)CC)[C@@H]1OC(=O)CC [Compound M9, 2′,3′,4′,6′-tetra-O-propionylmangiferin]
IC50 ([1]; Homo sapiens): 0.227 µM | phospho-IKK band density (anti-phospho-IKK antibody) (phospho-IKK): decrease in band density | IC50 ([2]; Homo sapiens): 0.086 µM | IC50 [3]: 0.007 µM | IC50 [4, 5]: 0.62 µM | NF-κB p52 nuclear (NF-κB p52 nuclear): decreased

CCCCC(=O)OC[C@H]1O[C@@H](c2c(O)cc3oc4cc(O)c(O)cc4c(=O)c3c2OC(=O)CCCC)[C@H](OC(=O)CCCC)[C@@H](OC(=O)CCCC)[C@@H]1OC(=O)CCCC [yk-8-3, 1,2′,3′,4′,6-penta-O-valerylmangiferin]
IC50 ([1]; Homo sapiens): 0.865 µM | phospho-IKK band density (anti-phospho-IKK antibody) (phospho-IKK): decrease in band density | IC50 ([2]; Homo sapiens): 0.346 µM | IC50 [3]: 0.072 µM | IC50 [4, 5]: 1.4 µM | NF-κB p52 nuclear (NF-κB p52 nuclear): decreased

C=CCOc1cc(O)cc2oc3cc(O)c(O)cc3c(=O)c12 [Compound M19, 1-allyloxy-3,6,7-trihydroxy-9H-xanthen-9-one]
IC50 ([1]; Homo sapiens): 8.92 µM | phospho-IKK band density (anti-phospho-IKK antibody) (phospho-IKK): decrease in band density | IC50 ([2]; Homo sapiens): 17.4 µM | IC50 [3]: 0.791 µM | IC50 [4, 5]: 7.2 µM | NF-κB p52 nuclear (NF-κB p52 nuclear): decreased

CCCC(=O)OC[C@H]1O[C@@H](c2c(O)cc3oc4cc(O)c(O)cc4c(=O)c3c2O)[C@H](OC(=O)CCC)[C@@H](OC(=O)CCC)[C@@H]1OC(=O)CCC [Compound M14, 2′,3′,4′,6′-tetra-O-butyrylmangiferin]
IC50 ([1]; Homo sapiens): 0.085 µM | phospho-IKK band density (anti-phospho-IKK antibody) (phospho-IKK): decrease in band density | IC50 ([2]; Homo sapiens): 0.002 µM | IC50 [3]: 0.008 µM | IC50 [4, 5]: 0.029 µM | NF-κB p52 nuclear (NF-κB p52 nuclear): decreased

CCCC(=O)OC[C@H]1O[C@@H](c2c(O)cc3oc4cc(O)c(O)cc4c(=O)c3c2OC(=O)CCC)[C@H](OC(=O)CCC)[C@@H](OC(=O)CCC)[C@@H]1OC(=O)CCC [Compound M12, 1,2′,3′,4′,6-penta-O-butyrylmangiferin]
IC50 ([1]; Homo sapiens): 0.657 µM | phospho-IKK band density (anti-phospho-IKK antibody) (phospho-IKK): decrease in band density | IC50 ([2]; Homo sapiens): 0.005 µM | IC50 [3]: 0.015 µM | IC50 [4, 5]: 0.089 µM | NF-κB p52 nuclear (NF-κB p52 nuclear): decreased

O=c1c2cc(O)c(O)cc2oc2cc(O)cc(OCCO)c12 [Compound M18, 3,6,7-trihydroxy-1-(2-hydroxyethoxy)-9H-xanthen-9-one]
IC50 ([1]; Homo sapiens): 5.59 µM | phospho-IKK band density (anti-phospho-IKK antibody) (phospho-IKK): decrease in band density | IC50 ([2]; Homo sapiens): 9.58 µM | IC50 [3]: 0.651 µM | IC50 [4, 5]: 4.7 µM | NF-κB p52 nuclear (NF-κB p52 nuclear): decreased

CCCCO[C@@H]1[C@@H](OCCCC)[C@H](c2c(O)cc3oc4cc(O)c(O)cc4c(=O)c3c2O)O[C@H](COC(=O)CCC)[C@H]1OC(=O)CCC [Compound M16, 2′,3′-di-O-butyl-4′,6′-di-O-butyrylmangiferin]
IC50 ([1]; Homo sapiens): 0.079 µM | phospho-IKK band density (anti-phospho-IKK antibody) (phospho-IKK): decrease in band density | IC50 ([2]; Homo sapiens): 0.011 µM | IC50 [3]: 0.007 µM | IC50 [4, 5]: 0.021 µM | NF-κB p52 nuclear (NF-κB p52 nuclear): decreased

CCCCC(=O)OC[C@H]1O[C@@H](c2c(OC(=O)CCCC)cc3oc4cc(OC(=O)CCCC)c(OC(=O)CCCC)cc4c(=O)c3c2OC(=O)CCCC)[C@H](OC(=O)CCCC)[C@@H](OC(=O)CCCC)[C@@H]1OC(=O)CCCC [yk-8-1, 1,3,2′,3′,4′,6,6′,7-octa-O-valerylmangiferin]
IC50 [1]: > 100 µM | phospho-IKK band density (anti-phospho-IKK antibody) (phospho-IKK): decrease in band density | IC50 [2]: > 100 µM | IC50 [3]: 21.4 µM | IC50 ([4]; cell viability): > 100 µM | NF-κB p52 nuclear (NF-κB p52 nuclear): decreased

O=c1c2cc(O)c(O)cc2oc2cc(O)cc(O)c12 [norathyriol, reference compound]
IC50 ([1]; Homo sapiens): 8.6 µM | phospho-IKK band density (anti-phospho-IKK antibody) (phospho-IKK): decrease in band density | IC50 ([2]; Homo sapiens): 18.4 µM | IC50 [3]: 0.737 µM | IC50 [4, 5]: 5.8 µM | NF-κB p52 nuclear (NF-κB p52 nuclear): decreased

CCCC(=O)OC[C@H]1O[C@@H](c2c(OC(=O)CCC)cc3oc4cc(OC(=O)CCC)c(OC(=O)CCC)cc4c(=O)c3c2OC(=O)CCC)[C@H](OC(=O)CCC)[C@@H](OC(=O)CCC)[C@@H]1OC(=O)CCC [Compound M11, 1,3,2′,3′,4′,6,6′,7-octa-O-butyrylmangiferin]
IC50 [1]: 0.698 µM | phospho-IKK band density (anti-phospho-IKK antibody) (phospho-IKK): decrease in band density | IC50 [2]: 0.415 µM | IC50 [3]: 0.828 µM | IC50 ([4]; cell viability): 0.97 µM | NF-κB p52 nuclear (NF-κB p52 nuclear): decreased

CCC(=O)OC[C@H]1O[C@@H](c2c(OC(=O)CC)cc3oc4cc(OC(=O)CC)c(OC(=O)CC)cc4c(=O)c3c2OC(=O)CC)[C@H](OC(=O)CC)[C@@H](OC(=O)CC)[C@@H]1OC(=O)CC [Compound M7, 1,3,2′,3′,4′,6,6′,7-octa-O-propionylmangiferin]
IC50 ([1]; Homo sapiens): 0.898 µM | phospho-IKK band density (anti-phospho-IKK antibody) (phospho-IKK): decrease in band density | IC50 ([2]; Homo sapiens): 0.771 µM | IC50 [3]: 0.099 µM | IC50 [4, 5]: 5.1 µM | NF-κB p52 nuclear (NF-κB p52 nuclear): decreased

CC(C)(C)C(=O)OC[C@H]1O[C@@H](c2c(O)cc3oc4cc(O)c(O)cc4c(=O)c3c2O)[C@H](OC(=O)C(C)(C)C)[C@@H](OC(=O)C(C)(C)C)[C@@H]1OC(=O)C(C)(C)C [Compound M15, 2′,3′,4′,6′-tetra-O-pivaloylmangiferin]
IC50 ([1]; Homo sapiens): 0.096 µM | phospho-IKK band density (anti-phospho-IKK antibody) (phospho-IKK): decrease in band density | IC50 ([2]; Homo sapiens): 0.002 µM | IC50 [3]: 0.011 µM | IC50 [4, 5]: 0.091 µM | NF-κB p52 nuclear (NF-κB p52 nuclear): decreased
